# Experiments:
# Type in all cases: ADME, organism-based
# [1] = Tmax in healthy human plasma at 800 mg measured on day 1
# [2] = AUC (0-tau) in healthy human plasma at 800 mg for every 12 hrs measured on day 15
# [3] = Tmax in healthy human plasma at 800 mg for every 12 hrs measured on day 15
# [4] = Apparent oral clearance in healthy human plasma at 800 mg for every 12 hrs measured on day 15
# [5] = Cmax in healthy human plasma at 800 mg for every 12 hrs measured on day 15; design: dose 800 mg
# [6] = Trough concentration in healthy human plasma at 800 mg for every 12 hrs measured on day 15; conditions: read-out: Cmin
# [7] = Cmax in healthy human plasma at 800 mg measured on day 1; design: dose 800 mg
structure (smiles),measurement,setting,value
Cc1nc(COc2ccc(C[C@H](NC(=O)O[C@H]3CO[C@H]4OCC[C@H]43)[C@H](O)CN(CC(C)C)S(=O)(=O)c3ccc4c(c3)OCO4)cc2)cs1 [BRECANAVIR],Tmax,[1],2.5 h
same,AUC tau at 12 h,[2],199 ng·h/mL
same,Tmax,[3],3.75 h
same,CL/F,[4],67000 mL/min
same,Cmax,[5],49.2 ng/mL
same,concentration at 12 h,[6],2.6 ng/mL
same,Cmax,[7],3.96 ng/mL

# From ChEMBL document CHEMBL1147107, “Safety and pharmacokinetics of brecanavir, a novel human immunodeficiency virus type 1 protease inhibitor, following repeat administration with and without ritonavir in healthy adult subjects” (Antimicrob Agents Chemother, 2007)
